In patent publication US12180187B2, “1-phenyl-5-azinylpyrazolyl-3-oxyalkyl acids and their use for controlling unwanted plant growth” (BAYER AKTIENGESELLSCHAFT, priority 2019, dated 2024):

Tests used:
[1] = test system: DIGSA; experiment: Pre-emergence action at 320 g/ha against DIGSA; format: in vivo, Digitaria sanguinalis; settings: visual scoring after about 3 weeks vs untreated controls
How it was run: (§1)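 Weed and crop seeds sown in pots and covered with soil; WP or EC formulations sprayed pre-emergence onto the soil surface at 320 g/ha with 0.5% additive in 600 l/ha water. Kept in greenhouse; after about 3 weeks activity scored visually as % versus untreated controls (100% = plants dead, 0% = as control).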

[2] = test system: POLCO; experiment: Pre-emergence action at 320 g/ha against POLCO; format: in vivo, Fallopia convolvulus (Polygonum convolvulus); settings: visual scoring after about 3 weeks vs untreated controls
How it was run: as §1

[3] = test system: SETVI; experiment: Pre-emergence action at 320 g/ha against SETVI; format: in vivo, Setaria viridis; settings: visual scoring after about 3 weeks vs untreated controls
How it was run: as §1

[4] = test system: SETVI; experiment: Pre-emergence action against SETVI, 1280 g/ha; format: in vivo, Setaria viridis; settings: visual scoring after about 3 weeks vs untreated controls, 100% = plants have died, 0% = like control plants
How it was run: (§2)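 Visual % scoring, roughly 3 weeks post-application, against untreated controls; 100% means plants died. Treatment went onto the soil covering sown seeds (sandy loam), as aqueous suspension or emulsion plus 0.5% additive.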

[5] = test system: ALOMY; experiment: Pre-emergence action at 320 g/ha against ALOMY; format: in vivo, Alopecurus myosuroides; settings: scored visually after about 3 weeks vs untreated controls (100% = plants have died)
How it was run: as §1

[6] = test system: POAAN; experiment: Post-emergence action against POAAN, 1.28 kg/ha; format: in vivo, Poa annua; settings: dosage 1280 g/ha, visual rating about 3 weeks after treatment vs untreated controls
How it was run: (§3)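 Weeds grown in sandy loam in a greenhouse were sprayed at the one-leaf stage, 2–3 weeks after sowing, with WP or EC formulations in water containing 0.5% additive at 600 L/ha. About 3 weeks later, damage was scored visually versus untreated controls (0% = like control, 100% = dead).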

[7] = test system: MATIN; experiment: Pre-emergence action against MATIN, 1280 g/ha; format: in vivo, Tripleurospermum inodorum (Matricaria inodora); settings: scored visually after about 3 weeks vs untreated controls (100% = plants have died)
How it was run: as §2

[8] = test system: STEME; experiment: Pre-emergence action against STEME, 1280 g/ha; format: in vivo, Stellaria media; settings: scored visually after about 3 weeks vs untreated controls (100% = plants have died)
How it was run: as §2

[9] = test system: ECHCG; experiment: Post-emergence action against ECHCG, 1.28 kg/ha; format: in vivo, Echinochloa crus-galli; settings: dosage 1280 g/ha, visual rating about 3 weeks after treatment vs untreated controls
How it was run: as §3

[10] = test system: AMARE; experiment: Pre-emergence action at 320 g/ha against AMARE; format: in vivo, Amaranthus retroflexus; settings: visual scoring after about 3 weeks vs untreated controls
How it was run: as §1

[11] = test system: POAAN; experiment: Pre-emergence action against POAAN, 1280 g/ha; format: in vivo, Poa annua; settings: visual scoring after about 3 weeks vs untreated controls, 100% = plants have died, 0% = like control plants
How it was run: as §2

[12] = test system: AMARE; experiment: Pre-emergence action against AMARE, 1280 g/ha; format: in vivo, Amaranthus retroflexus; settings: scored visually after about 3 weeks vs untreated controls (100% = plants have died)
How it was run: as §2

[13] = test system: AVEFA; experiment: Pre-emergence action at 320 g/ha against AVEFA; format: in vivo; settings: visual scoring after about 3 weeks vs untreated controls
How it was run: as §1

[14] = test system: ECHCG; experiment: Pre-emergence action against ECHCG, 1280 g/ha; format: in vivo, Echinochloa crus-galli; settings: visual scoring after about 3 weeks vs untreated controls, 100% = plants have died, 0% = like control plants
How it was run: as §2

Work on `CCOC(=O)COc1nn(-c2ccccc2F)c(-c2ccnc(F)c2)c1Br` [VIII-003, Ethyl {[4-bromo-1-(2-fluorophenyl)-5-(2-fluoropyridin-4-yl)-1H-pyrazol-3-yl]oxy}acetate] yielded a pest or weed control at 320 g/ha ([1]; Digitaria sanguinalis, 504 h) of 100%, a pest or weed control at 320 g/ha ([2]; Fallopia convolvulus, 504 h) of 100% and a pest or weed control at 320 g/ha ([3]; Setaria viridis, 504 h) of 100%. It also gave a pest or weed control at 1280 g/ha ([4]; Setaria viridis, 504 h) of 100%, a pest or weed control at 320 g/ha ([5]; Alopecurus myosuroides, 504 h) of 100% and a pest or weed control at 1280 g/ha ([6]; Poa annua, 504 h) of 100%. For the same molecule, the pest or weed control at 1280 g/ha ([7]; Tripleurospermum inodorum, 504 h) was 100%, the pest or weed control at 1280 g/ha ([8]; Stellaria media, 504 h) was 100% and the pest or weed control at 1280 g/ha ([9]; Echinochloa crus-galli, 504 h) was 100%. For the same molecule, the pest or weed control at 320 g/ha ([10]; Amaranthus retroflexus, 504 h) was 90%, the pest or weed control at 1280 g/ha ([11]; Poa annua, 504 h) was 100% and the pest or weed control at 1280 g/ha ([12]; Amaranthus retroflexus, 504 h) was 100%. It also gave a pest or weed control at 320 g/ha ([13]; Avena fatua, 504 h) of 90% and a pest or weed control at 1280 g/ha ([14]; Echinochloa crus-galli, 504 h) of 100%.
For `COC(=O)[C@@H](C)Oc1nn(-c2ccccc2F)c(-c2ccnc(F)c2)c1Br` [VIII-006], the “Pre-emergence action against DIGSA in %” value [1] was 100%, the “Pre-emergence action against POLCO in %” value [2] was 90% and the “Pre-emergence action against SETVI in %” value [3] was 100%. The “Pre-emergence action against SETVI” value [4] was 100%, the “Pre-emergence action at 320 g/ha against ALOMY in %” value [5] was 100% and the “Post-emergence action against POAAN” value [6] was 100%. The “Pre-emergence action against MATIN” value [7] was 100%, the “Pre-emergence action against STEME” value [8] was 100% and the “Post-emergence action against ECHCG” value [9] was 90%. The “Pre-emergence action against AMARE in %” value [10] was 100%, the “Pre-emergence action against POAAN” value [11] was 100% and the “Pre-emergence action against AMARE” value [12] was 100%. The “Pre-emergence action against AVEFA in %” value [13] was 80% and the “Pre-emergence action against ECHCG” value [14] was 100%.
